US8309725B2 (priority 2007, dated 2012)

The molecules below were run against T1, κ receptor (Cavia porcellus, UniProt P41144) (assay: biochemical). Conditions: not given.
T1 construct: sucrose solution (0.32 M) was added to five guinea pig brains and the mixture was homogenized; from tissue; host or cells: whole guinea pig brain membrane homogenate
Format: binding, guinea pig

T1 sequence (P41144 whole entry): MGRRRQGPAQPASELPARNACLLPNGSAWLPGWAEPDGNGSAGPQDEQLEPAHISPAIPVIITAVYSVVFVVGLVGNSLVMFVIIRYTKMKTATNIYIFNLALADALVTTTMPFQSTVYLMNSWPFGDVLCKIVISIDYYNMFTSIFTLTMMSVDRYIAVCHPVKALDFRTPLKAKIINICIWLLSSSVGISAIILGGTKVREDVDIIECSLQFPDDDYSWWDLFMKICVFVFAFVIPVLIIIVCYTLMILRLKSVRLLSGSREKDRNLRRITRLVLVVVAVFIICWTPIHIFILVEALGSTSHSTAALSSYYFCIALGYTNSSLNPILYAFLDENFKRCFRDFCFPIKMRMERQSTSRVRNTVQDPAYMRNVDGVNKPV

`COC(=O)CC(=O)N1CCN(C(=O)Cc2ccc(Cl)c(Cl)c2)[C@H]2[C@H]1CCC[C@@H]2N1CCCC1` (racemic) [Example 13, methyl 3-{(4aRS,8SR,8aRS)-1-[2-(3,4-dichlorophenyl)acetyl]-8-(pyrrolidin-1-yl)-perhydroquinoxalin-4-yl}-3-oxopropionate] was tested. Which Ki did it give?
Its Ki is 11 ± 5.6 nM.

How did the Ki turn out when `COc1ccc(CN2CCN(C(=O)Cc3ccc(Cl)c(Cl)c3)[C@H]3[C@H]2CCC[C@@H]3N2CCCC2)cc1` (racemic) [Example 20, 2-(3,4-dichlorophenyl)-1-[(4aRS,8SR,8aRS)-4-(4-methoxybenzyl)-8-(pyrrolidin-1-yl)-perhydroquinoxalin-1-yl]ethan-1-one] was run?
The Ki was 6.8 ± 2 nM.

For `O=C(Cc1ccc(Cl)c(Cl)c1)N1CCN(Cc2ccccn2)[C@@H]2CCC[C@H](N3CCCC3)[C@H]21` (racemic) [Example 21, 2-(3,4-dichlorophenyl)-1-{(4aRS,8SR,8aRS)-4-[(pyridin-2-yl)methyl]-8-(pyrrolidin-1-yl)perhydroquinoxalin-1-yl}ethan-1-one], which Ki is on record?
Its Ki is 4.2 ± 2.6 nM.

With `CCCCN1CCN(C(=O)Cc2ccc(Cl)c(Cl)c2)[C@H]2[C@H]1CCC[C@@H]2N1CCCC1` (racemic) [Example 19, 1-[(4aRS,8SR,8aRS)-4-butyl-8-(pyrrolidin-1-yl)perhydroquinoxalin-1-yl]-2-(3,4-dichlorophenyl)-ethan-1-one] as the molecule, how does the Ki read?
Its Ki is 3.1 ± 1.8 nM.

Which Ki does the source give for `O=C(Cc1ccc(Cl)c(Cl)c1)N1CCN(Cc2cccnc2)[C@@H]2CCC[C@H](N3CCCC3)[C@H]21` (racemic) [Example 22, 2-(3,4-dichlorophenyl)-1-{(4aRS,8SR,8aRS)-4-[(pyridin-3-yl)methyl]-8-(pyrrolidin-1-yl)perhydroquinoxalin-1-yl}ethan-1-one] here?
Its Ki is 0.13 ± 0.02 nM.

Same assay, conditions: read-out: κ: Ki ± SEM

`O=C(c1ccccc1)N1CCN(C(=O)Cc2ccc(Cl)c(Cl)c2)C2C(N3CCC(O)C3)CCCC21` (stereo not drawn) [Example 14, 1-{(4aRS,8SR,8aSR)-4-benzoyl-8-[(3SR)- and (3RS)-3-hydroxypyrrolidin-1-yl]-perhydroquinoxalin-1-yl}-2-(3,4-dichlorophenyl)ethan-1-one] was tested. Which Ki did it give?
The Ki was 22 ± 5.6 nM.

For `COC(=O)N1CCN(C(=O)Cc2ccc(Cl)c(Cl)c2)C2C(N3CCC(O)C3)CCCC21` (stereo not drawn) [Example 15, methyl{(4aRS,8SR,8aRS)-1-[2-(3,4-dichlorophenyl)acetyl]-8-[(3SR)- and (3RS)-3-hydroxypyrrolidin-1-yl]-perhydroquinoxalin-4-yl}carboxylate], which Ki is on record?
Its Ki is 11 ± 2.8 nM.

`COC(=O)CC(=O)N1CCN(C(=O)Cc2ccc(Cl)c(Cl)c2)C2C(N3CCC(O)C3)CCCC21` (stereo not drawn) [Example 17, methyl 3-{(4aRS,8SR,8aRS)-1-[2-(3,4-dichlorophenyl)acetyl]-8-[(3SR)- and (3RS)-3-hydroxypyrrolidin-1-yl]-perhydroquinoxalin-4-yl}-3-oxopropionate] was tested. Which Ki did it give?
The Ki was 18 ± 2.2 nM.

`O=C(Cc1ccc(Cl)c(Cl)c1)N1CCN(Cc2ccccc2)C2CCCC(N3CCC(O)C3)C21` (stereo not drawn) [Example 5, 1-{(4aRS,8SR,8aSR)-4-benzyl-8-[(3SR)- and (3RS)-3-hydroxypyrrolidin-1-yl]perhydroquinoxalin-1-yl}-2-(3,4-dichlorophenyl)ethan-1-one] was tested. Which Ki did it give?
Its Ki is 6.6 ± 1.4 nM.

With `O=C(O)CC(=O)N1CCN(C(=O)Cc2ccc(Cl)c(Cl)c2)C2C(N3CCC(O)C3)CCCC21` (stereo not drawn) [Example 16, 3-{(4aRS,8SR,8aRS)-1-[2-(3,4-dichlorophenyl)acetyl]-8-[(3SR)- and (3RS)-3-hydroxypyrrolidin-1-yl]-perhydroquinoxalin-4-yl}-3-oxopropionic acid] as the molecule, how does the Ki read?
The Ki was 482 ± 113 nM.

With `O=C(Cc1ccc(Cl)c(Cl)c1)N1CCN(Cc2cccnc2)C2CCCC(N3CCC(O)C3)C21` (stereo not drawn) [Example 25, 2-(3,4-dichlorophenyl)-1-{(4aRS,8SR,8aSR)-4-[(pyridin-3-yl)methyl]-8-[(3SR)- and (3RS)-3-hydroxypyrrolidin-1-yl]perhydroquinoxalin-1-yl}ethan-1-one] as the molecule, how does the Ki read?
Its Ki is 3.8 ± 0.7 nM.

What follows are molecules tested on male NMRI mice (assay: not given). Conditions: mouse, in vivo.

“2-(3,4-dichlorophenyl)-1-{(4aRS,8SR,8aSR)-8-[(3SR)-3-hydroxypyrrolidin-1-yl]perhydroquinoxalin-1-yl}ethan-1-one and 2-(3,4-dichlorophenyl)-1-{(4aRS,8SR,8aSR)-8-[(3RS)-3-hydroxypyrrolidin-1-yl]perhydroquinoxalin-1-yl}ethan-1-one [Example 2]” was tested. Which “reduction in the pain in the models of the centrally mediated types of pain” value did it give?
Its value is “no significant reduction in the pain”.
